From US20210198277A1, “AMINE-SUBSTITUTED ARYL OR HETEROARYL COMPOUNDS” (Epizyme, Inc., priority 2016, published 2021)

What follows are compounds tested against T1, EHMT1 (Homo sapiens, UniProt Q9H9B1) (assay: EHMT1 enzyme assay on peptide substrate (EHMT1 PEP)). Conditions: read-out: EHMT1 PEP (IC50 μM).
T1 sequence (Q9H9B1 1-1298): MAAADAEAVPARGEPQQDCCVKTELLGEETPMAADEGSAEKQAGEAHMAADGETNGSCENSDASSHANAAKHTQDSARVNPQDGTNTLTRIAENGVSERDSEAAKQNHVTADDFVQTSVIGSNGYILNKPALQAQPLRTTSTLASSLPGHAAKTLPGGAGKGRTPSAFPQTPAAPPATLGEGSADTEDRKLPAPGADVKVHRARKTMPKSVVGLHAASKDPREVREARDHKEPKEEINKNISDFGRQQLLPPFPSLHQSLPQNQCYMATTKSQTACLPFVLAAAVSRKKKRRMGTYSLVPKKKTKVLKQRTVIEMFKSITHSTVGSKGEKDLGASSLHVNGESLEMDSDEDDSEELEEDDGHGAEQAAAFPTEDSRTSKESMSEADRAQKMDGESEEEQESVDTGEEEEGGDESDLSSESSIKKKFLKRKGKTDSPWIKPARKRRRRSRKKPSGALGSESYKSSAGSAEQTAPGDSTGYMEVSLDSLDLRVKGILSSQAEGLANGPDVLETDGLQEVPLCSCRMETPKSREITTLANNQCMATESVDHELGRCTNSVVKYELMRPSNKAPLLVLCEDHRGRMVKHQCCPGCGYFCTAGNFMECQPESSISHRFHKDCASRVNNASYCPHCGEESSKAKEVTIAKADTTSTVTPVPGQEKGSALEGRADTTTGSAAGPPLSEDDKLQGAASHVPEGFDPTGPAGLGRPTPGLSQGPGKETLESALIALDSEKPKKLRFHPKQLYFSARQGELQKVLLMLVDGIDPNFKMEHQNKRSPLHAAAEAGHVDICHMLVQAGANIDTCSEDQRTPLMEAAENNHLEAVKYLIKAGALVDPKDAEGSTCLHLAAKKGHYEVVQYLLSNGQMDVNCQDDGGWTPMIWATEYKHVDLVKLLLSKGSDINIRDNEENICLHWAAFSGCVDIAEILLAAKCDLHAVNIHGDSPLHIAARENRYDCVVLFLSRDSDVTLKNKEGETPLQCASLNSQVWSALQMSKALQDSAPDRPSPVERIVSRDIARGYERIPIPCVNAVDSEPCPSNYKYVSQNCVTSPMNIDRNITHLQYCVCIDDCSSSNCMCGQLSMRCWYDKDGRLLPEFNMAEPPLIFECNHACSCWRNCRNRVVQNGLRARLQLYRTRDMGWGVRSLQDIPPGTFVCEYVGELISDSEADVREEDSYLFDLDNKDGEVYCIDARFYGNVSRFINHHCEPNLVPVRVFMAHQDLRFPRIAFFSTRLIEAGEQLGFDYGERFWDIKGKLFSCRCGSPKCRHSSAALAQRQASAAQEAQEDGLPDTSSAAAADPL
Type: biochemical

Compound	IC50 [µM]
CNc1ccnc(Nc2cc(OCCCN3CCCC3)c3cn[nH]c3c2)n1 [Compound 538, N^4-methyl-N^2-(4-(3-(pyrrolidin-1-yl)propoxy)-1H-indazol-6-yl)pyrimidine-2,4-diamine]	0.1 to 1
CNc1ccnc(Nc2cc(OCCCN3CCCC3)c3[nH]ncc3c2)n1 [Compound 539]	> 10
CNc1ccnc(NC2CCCNC2)n1 (stereo not drawn) [Compound 541, N^4-methyl-N^2-(piperidin-3-yl)pyrimidine-2,4-diamine]	> 10
CNc1ccnc(NC2CCNCC2)n1 [Compound 542, N^4-methyl-N^2-(piperidin-4-yl)pyrimidine-2,4-diamine]	> 10
CCCC1(Nc2nccc(NC)n2)CCCNC1 (stereo not drawn) [Compound 544]	> 10
CCCC1(Nc2nccc(NC)n2)CCNCC1 [Compound 545]	> 10
CNc1ccnc(NC2(C)CCCNC2)n1 (stereo not drawn) [Compound 546, N^4-methyl-N^2-(3-methylpiperidin-3-yl)pyrimidine-2,4-diamine]	> 10
CNc1ccnc(NC2(C)CCNCC2)n1 [Compound 547, N^4-methyl-N^2-(4-methylpiperidin-4-yl)pyrimidine-2,4-diamine]	> 10
CNc1ccnc(N[C@@H]2CC[C@H](N)C2)n1 [Compound 548, N^2-((1R,3S)-3-aminocyclopentyl)-N^4-methylpyrimidine-2,4-diamine]	> 10
CCCCN1CCCC(C)(Nc2nccc(NC)n2)C1 (stereo not drawn) [Compound 549, N^2-(1-butyl-3-methylpiperidin-3-yl)-N^4-methylpyrimidine-2,4-diamine]	> 10
CCCCN1CCC(C)(Nc2nccc(NC)n2)CC1 [Compound 550, N^2-(1-butyl-4-methylpiperidin-4-yl)-N^4-methylpyrimidine-2,4-diamine]	> 10
CNc1cc(C)nc(Nc2ccc(OC)c(OCCCN(C)C3CCC3)c2)n1 [Compound 551, N^2-(3-(3-(cyclobutyl(methyl)amino)propoxy)-4-methoxyphenyl)-N^4,6-dimethylpyrimidine-2,4-diamine]	0.1 to 1
c1nc(NC2CCNCC2)ncc1OCCCN1CCCC1 [Compound 552]	> 10
CN1CCC(COc2cnc(NCC3CCOCC3)nc2)C1 (stereo not drawn) [Compound 553]	> 10
CN1CCC(COc2ccc(NC3CCNCC3)nc2)C1 (stereo not drawn) [Compound 554]	> 10
CN1CCC(COc2cnc(NC3CCNCC3)nc2)C1 (stereo not drawn) [Compound 555]	> 10
c1nc(NC2CCNCC2)ncc1OCC1CCN(C2CC2)C1 (stereo not drawn) [Compound 556]	> 10
c1nc(NC2CCOCC2)ncc1OCC1CCN(C2CC2)C1 (stereo not drawn) [Compound 557]	> 10
CNc1cc(C)nc(Nc2cnc(OC)c(OC[C@H]3CCN(C4CC4)C3)c2)n1 [Compound 558]	< 0.1
CNc1cc(C)nc(Nc2ccc(OC)c(OCC3CN(C(C)C)C3)c2)n1 [Compound 559]	< 0.1
CCN1CC(C(O)Oc2cc(Nc3nc(C)cc(NC)n3)ccc2OC)C1 (stereo not drawn) [Compound 560]	0.1 to 1

Compound	IC50 [µM]
CNc1cc(C)nc(Nc2ccc(OC)c(O)c2)n1 [Compound 561]	> 10
CCN1CC(C(C#N)Oc2cc(Nc3nc(C)cc(NC)n3)ccc2OC)C1 (stereo not drawn) [Compound 562]	1 to 10
CNc1cc(C)nc(Nc2ccc(OC)c(OC[C@@H]3CCN(C4CCC4)C3)c2)n1 [Compound 563]	< 0.1
CCN1CC(COc2cc(Nc3nccc4[nH]ccc34)ncc2OC)C1 [Compound 564]	< 0.1
COc1cc(Nc2nc(C)cc3[nH]ncc23)ncc1OCCCN1CCCC1 [Compound 565]	1 to 10
CCN1CC(COc2cc(Nc3cc(NC)ncc3F)ncc2OC)C1 [Compound 566]	1 to 10
CCN1CC(COc2cc(Nc3cc(NC)nc(C)c3F)ncc2OC)C1 [Compound 567]	1 to 10
CNc1cc(C)nc(Nc2ccc(OC)c(OC[C@@H]3CCN(C4(C)CC4)C3)c2)n1 [Compound 568]	< 0.1
CCN1CC(COc2cc(Nc3cc(NC)cc(C)n3)cnc2OC)C1 [Compound 569]	< 0.1
CCN1CC[C@@H](COc2cc(Nc3nc(C)cc(NC)n3)ccc2OC)C1 [Compound 571]	< 0.1
COc1ccc(NC2CCNCC2)cc1OCCCN1CCCC1 [Compound 572]	> 10
COc1ccc(NC2CCCNC2)cc1OCCCN1CCCC1 (stereo not drawn) [Compound 573]	1 to 10
CNc1cc(C)nc(Nc2ccc(OC)c(OCCCN3CC4(CC4)C3)c2)n1 [Compound 574]	1 to 10
CNc1cc(C)nc(Nc2ccc(OC)c(OCC3CN(C(C)C)C3)c2)n1 [Compound 575]	0.1 to 1
CNc1cc(C)nc(Nc2ccc(OC)c(OCC3CN(C4CCC4)C3)c2)n1 [Compound 576]	< 0.1
CNc1cc(C)nc(Nc2ccc(OC)c(OCC3CN(C4CCCC4)C3)c2)n1 [Compound 577]	0.1 to 1
COc1cc(NC2CCCNC2)ccc1OCCCN1CCCC1 (stereo not drawn) [Compound 578]	1 to 10
COc1cc(NC2CCNCC2)ccc1OCCCN1CCCC1 [Compound 579]	1 to 10
CNc1cc(C)nc(Nc2ccc(OC)c(OCC3CN(C4CCOC4)C3)c2)n1 (stereo not drawn) [Compound 580]	> 10
COc1cnc(Nc2cccc3[nH]ncc23)cc1OCCCN1CCCC1 [Compound 581]	> 10
COc1ccc(Nc2nccc3[nH]ncc23)cc1OCCCN1CCCC1 [Compound 582]	> 10

Compound	IC50 [µM]
COc1cnc(Nc2ccnc3[nH]ncc23)cc1OCCCN1CCCC1 [Compound 583]	1 to 10
CCN1CC(COc2cc(Nc3cccc4nncn34)ncc2OC)C1 [Compound 584]	> 10
COc1cnc(Nc2cccc3nccn23)cc1OCCCN1CCCC1 [Compound 585]	1 to 10
COc1cnc(Nc2cccn3ccnc23)cc1OCCCN1CCCC1 [Compound 586]	1 to 10
COc1cc2c(C3CCN(C)CC3)nc(N(C)C)nc2cc1OCCCN1CCCC1 [Compound 587]	< 0.1
CC(C)N1CC(COc2cnc(NC3CCNCC3)nc2)C1 [Compound 588]	> 10
COc1cnc(Nc2cccc3cncn23)cc1OCCCN1CCCC1 [Compound 589]	> 10
COc1ccc(Nc2nc(C)cc(NCC3CCOCC3)n2)cc1OCCCN1CCCC1 [Compound 590]	< 0.1
COc1ncc(Nc2nc(C)cc(NCC3CCOCC3)n2)cc1OCCCN1CCCC1 [Compound 591]	< 0.1
COc1ncc(Nc2nc(C)cc(NCC3CCOCC3)n2)cc1OC[C@@H]1CCN(C(C)C)C1 [Compound 592]	0.1 to 1
COc1ncc(Nc2nc(C)cc(NC(C)C)n2)cc1OCCCN1CCCC1 [Compound 593]	0.1 to 1
COc1ncc(Nc2nc(C)cc(NCC3CCOCC3)n2)cc1OC[C@@H]1CCN(C2CCC2)C1 [Compound 594]	< 0.1
COc1ncc(Nc2nc(C)cc(NCC3CCOCC3)n2)cc1OC[C@@H]1CCN(C2CCC2)C1 [Compound 595]	0.1 to 1
COc1cnc(Nc2cc(C)nc3[nH]ncc23)cc1OCCCN1CCCC1 [Compound 596]	1 to 10
C/C=C/C(=O)Nc1cc(OCCCN2CCCC2)c(OC)cn1 [Compound 597]	> 10
C/C=C/C(=O)Nc1ccc(OC)c(OCCCN2CCCC2)c1 [Compound 598]	> 10
CCN1CC[C@@H](COc2cc(Nc3nc(C)cc(NC)n3)cnc2OC)C1 [Compound 599]	< 0.1
CNc1cc(C)nc(Nc2ccc(OC)c(OC[C@@H]3CCNC3)c2)n1 [Compound 600]	< 0.1
CCc1cc(NC)nc(Nc2cnc(OC)c(OC[C@@H]3CCN(CC)C3)c2)n1 [Compound 601]	< 0.1
CCN1CC[C@@H](COc2cc(Nc3nc(C)cc(NC(C)C)n3)ccc2OC)C1 [Compound 602]	0.1 to 1
COc1ccc(Nc2nc(C)cc(NC(C)C)n2)cc1OCCCN1CCCC1 [Compound 603]	< 0.1
